pIC50: −log10 of the molar value. Activity calls are given as the source filed them. The calls are words filed in the database; no cut-off is given here.
Tests used:
HT-29 [1] = assay: Induction of apoptosis in human HT-29 cells assessed as cell shrinkage at cytotoxic IC50 after 72 hrs by Hoechst staining based fluorescence microscopic analysis; format: functional
HT-29 [2] = assay: Induction of apoptosis in human HT-29 cells assessed as loss of nuclear architecture at cytotoxic IC50 after 72 hrs by Hoechst staining based fluorescence microscopic analysis; format: functional, cell-based
HT-29 [3] = assay: Induction of apoptosis in human HT-29 cells assessed as bubble shaped region in cell surface at cytotoxic IC50 after 72 hrs by Hoechst staining based fluorescence microscopic analysis; format: functional
B16-F10 [4] = assay: Induction of apoptosis in mouse B16F10 cells assessed as bubble shaped region in cell surface at cytotoxic IC50 after 72 hrs by Hoechst staining based fluorescence microscopic analysis; format: functional
HT-29 [5] = assay: Potency index, ratio of maslinic acid IC50 to compound IC50 for human HT-29 cells; format: functional
HepG2 [6] = assay: Induction of apoptosis in human HepG2 cells assessed as bubble shaped region in cell surface at cytotoxic IC50 after 72 hrs by Hoechst staining based fluorescence microscopic analysis; format: functional
[7] = Induction of apoptosis in mouse B16F10 cells assessed as late apoptotic cells at cytotoxic IC50 after 72 hrs by Annexin V-FITC/propidium iodide staining based flow cytometry (reference value: 0.75 +/- 0.21%); format: functional, B16-F10
[8] = Cell cycle arrest in mouse B16F10 cells assessed as accumulation at G2/M phase at cytotoxic IC50 after 72 hrs by propidium iodide staining based flow cytometry (reference value: 1.01 +/- 0.13%); format: functional, B16-F10
HT-29 [9] = assay: Disruption of mitochondrial membrane potential in human HT-29 cells assessed as rhodamine123 negative cells at cytotoxic IC50 after 72 hrs by propidium iodide staining based fluorescence spectroscopic analysis (reference value: 5.8 +/- 0.42%); format: functional
HT-29 [10] = assay: Cytotoxicity against human HT-29 cells assessed as growth inhibition after 72 hrs by MTT assay; format: functional, cell-based; settings: HT-29, 72 h
HepG2 [11] = assay: Disruption of mitochondrial membrane potential in human HepG2 cells assessed as rhodamine123 negative cells at cytotoxic IC50 after 72 hrs by propidium iodide staining based fluorescence spectroscopic analysis (reference value: 11.7 +/- 6.8%); format: functional
B16-F10 [12] = assay: Potency index, ratio of maslinic acid IC50 to compound IC50 for mouse B16F10 cells; format: functional
HepG2 [13] = assay: Induction of apoptosis in human HepG2 cells assessed as early apoptotic cells at cytotoxic IC50 after 72 hrs by Annexin V-FITC/propidium iodide staining based flow cytometry (reference value: 0.3 +/- 0.01%); format: functional
HepG2 [14] = assay: Cytotoxicity against human HepG2 cells assessed as growth inhibition after 72 hrs by MTT assay; format: functional, cell-based; settings: HepG2, 72 h
[15] = Cell cycle arrest in mouse B16F10 cells assessed as accumulation at S phase at cytotoxic IC50 after 72 hrs by propidium iodide staining based flow cytometry (reference value: 48.31 +/- 0.74%); format: functional, B16-F10
HT-29 [16] = assay: Induction of apoptosis in human HT-29 cells assessed as early apoptotic cells at cytotoxic IC50 after 72 hrs by Annexin V-FITC/propidium iodide staining based flow cytometry (reference value: 1.65 +/- 0.07%); format: functional
HT-29 [17] = assay: Induction of apoptosis in human HT-29 cells assessed as chromatin condensation at cytotoxic IC50 after 72 hrs by Hoechst staining based fluorescence microscopic analysis; format: functional, cell-based
HepG2 [18] = assay: Induction of apoptosis in human HepG2 cells assessed as nucleus containing nicked DNA at cytotoxic IC50 after 72 hrs by Hoechst staining based fluorescence microscopic analysis; format: functional, cell-based
[19] = Cell cycle arrest in mouse B16F10 cells assessed as accumulation at G0/G1 phase at cytotoxic IC50 after 72 hrs by propidium iodide staining based flow cytometry (reference value: 50.69 +/- 0.61%); format: functional, B16-F10

Row | Structure (SMILES) | Activity (HT-29 [1]) | Activity (HT-29 [2]) | Activity (HT-29 [3]) | Activity (B16-F10 [4]) | Ratio IC50 (HT-29 [5]) | Activity (HepG2 [6]) | Activity [7] [%] | Activity [8] [%] | Activity (HT-29 [9]) [%] | pIC50 (HT-29 [10]) | Activity (HepG2 [11]) [%] | Ratio IC50 (B16-F10 [12]) | Activity (HepG2 [13]) [%] | pIC50 (HepG2 [14]) | Activity [15] [%] | Activity (HT-29 [16]) [%] | Activity (HT-29 [17]) | Activity (HepG2 [18]) | Activity [19] [%]
1 | COCCOCCOCC(=O)O[C@@H]1C[C@]2(C)[C@H]3CC=C4[C@@H]5CC(C)(C)CC[C@]5(C(=O)O)CC[C@@]4(C)[C@]3(C)CC[C@H]2C(C)(C)[C@H]1OC(=O)COCCOCCOC | Active | Active | Active | Active | 0.8 | Active | 56.05 | 0 | 5.7 | 4.40 | 43.2 | 0.7 | 14.75 | 4.22 | 12.07 | 40.1 | Active | Active | 87.93
2 | CC1(C)CC[C@]2(C(=O)NCCCOCCOCCOCCCN)CC[C@]3(C)C(=CC[C@@H]4[C@@]5(C)C[C@@H](O)[C@H](O)C(C)(C)[C@@H]5CC[C@]43C)[C@@H]2C1 | Active | Active | Active | Active | 2.7 | Active | 38.65 | 10.91 | 36.95 | 4.93 | 40.85 | 3.2 | 46.75 | 5.11 | 22.44 | 31.25 | Active | Active | 66.66

Source: ChEMBL document CHEMBL3822440, “Semi-synthesis and antiproliferative evaluation of PEGylated pentacyclic triterpenes” (Eur J Med Chem, 2016)
